Where two headings read alike, the source gives them in different places.
What was measured:
Assay type in all cases: in vivo
[1] = system: barnyardgrass (Echinochloa crus-galli); assay: Test A preemergence; settings: Echinochloa crus-galli, pre-emergence, 240 h; for pest or weed control at 125 g/ha: 125 g ai/ha, preemergence, 0 to 100 scale where 0 is no effect and 100 is complete control, read-out: Barnyardgrass plant response rating; for pest or weed control at 500 g/ha: 500 g ai/ha, Preemergence, visual injury vs untreated controls after approximately 10 d, read-out: Barnyardgrass plant response rating (0 to 100 scale where 0 is no effect and 100 is complete control)
Procedure, shortened: (§1)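 Seeded soil received test chemicals as a preemergence directed spray, and seedlings at one to two leaves, 2–10 cm tall, received them postemergence, in a non-phytotoxic, surfactant-containing solvent mixture. Pots were held in a greenhouse for approximately 10 d, then rated for injury from 0, no effect, to 100, complete control.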

[2] = system: Galium (catchweed bedstraw, Galium aparine); assay: Test A postemergence; settings: Galium, post-emergence, 240 h, 125 g ai/ha
Procedure, shortened: as §1

Kochia (Kochia scoparia) = assay: Test A postemergence; settings: Bassia scoparia, post-emergence, 240 h, 125 g ai/ha
Procedure, shortened: as §1

[3] = system: barnyardgrass (Echinochloa crus-galli); assay: Test A postemergence; settings: Echinochloa crus-galli, post-emergence, 240 h, 125 g ai/ha
Procedure, shortened: as §1

[4] = system: blackgrass (Alopecurus myosuroides); assay: Test A postemergence; settings: Alopecurus myosuroides, post-emergence, 240 h, 125 g ai/ha
Procedure, shortened: as §1

corn (Zea mays) = assay: Test A postemergence; settings: Zea mays, post-emergence, 240 h, 125 g ai/ha; for plant injury at 125 g/ha: postemergence, visual injury rating after approximately 10 d, read-out: Corn plant response rating (0 to 100 scale, 0 no effect, 100 complete control); for Corn plant response rating (crop injury, 0 = no effect, 100 = complete kill) at 125 g/ha: Postemergence, visual injury after approximately 10 d, 0 to 100 scale where 0 is no effect and 100 is complete control
Procedure, shortened: as §1

[5] = system: giant foxtail (Setaria faberii); assay: Test A postemergence; settings: Setaria faberi, post-emergence, 240 h, 125 g ai/ha
Procedure, shortened: as §1

[6] = system: pigweed (Amaranthus retroflexus); assay: Test A postemergence; settings: Amaranthus retroflexus, post-emergence, 240 h, 125 g ai/ha
Procedure, shortened: as §1

[7] = system: ragweed (common ragweed, Ambrosia elatior); assay: Test A postemergence; settings: Ambrosia artemisiifolia, post-emergence, 240 h, 125 g ai/ha
Procedure, shortened: as §1

[8] = system: ryegrass, Italian (Italian ryegrass, Lolium multiflorum); assay: Test A postemergence; settings: Lolium multiflorum, post-emergence, 240 h, 125 g ai/ha
Procedure, shortened: as §1

[9] = system: wheat (Triticum aestivum); assay: Test A postemergence; settings: Triticum aestivum, post-emergence, 240 h, 125 g ai/ha
Procedure, shortened: as §1

[10] = system: barnyardgrass (Echinochloa crus-galli); assay: Test B flooded paddy test; settings: Echinochloa crus-galli, Flood, 250 g ai/ha; scale of 0 to 100 where 0 is no effect and 100 is complete control; read-out: Barnyardgrass plant response rating
Procedure, shortened: (§2)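 Evaluation by eye, against controls, occurred 13–15 d post-treatment in a greenhouse, using a 0 (no effect) to 100 (complete control) scale. Application was into the paddy water, 3 cm deep over the soil, on 2-leaf plants.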

[11] = system: ducksalad (Heteranthera limosa); assay: Test B flooded paddy test; settings: Heteranthera limosa, Flood, 250 g ai/ha; scale of 0 to 100 where 0 is no effect and 100 is complete control; read-out: Ducksalad plant response rating
Procedure, shortened: as §2

rice (Oryra sativa) = assay: Test B flooded paddy test; settings: Oryza sativa, Flood, 250 g ai/ha; scale of 0 to 100 where 0 is no effect and 100 is complete control; read-out: Rice plant response rating
Procedure, shortened: as §2

[12] = system: sedge, umbrella (small-flower umbrella sedge, Cyperus difformis); assay: Test B flooded paddy test; settings: Cyperus difformis, Flood, 250 g ai/ha; scale of 0 to 100 where 0 is no effect and 100 is complete control; read-out: Sedge, Umbrella plant response rating
Procedure, shortened: as §2

[13] = postemergence, visual injury rating after approximately 10 d, read-out: Galium plant response rating (0 to 100 scale, 0 no effect, 100 complete control)
[14] = postemergence, visual injury rating after approximately 10 d, read-out: Kochia plant response rating (0 to 100 scale, 0 no effect, 100 complete control)
[15] = postemergence, visual injury rating after approximately 10 d, read-out: Barnyardgrass plant response rating (0 to 100 scale, 0 no effect, 100 complete control)
[16] = postemergence, visual injury rating after approximately 10 d, read-out: Blackgrass plant response rating (0 to 100 scale, 0 no effect, 100 complete control)
[17] = postemergence, visual injury rating after approximately 10 d, read-out: Foxtail, Giant plant response rating (0 to 100 scale, 0 no effect, 100 complete control)
[18] = postemergence, visual injury rating after approximately 10 d, read-out: Pigweed plant response rating (0 to 100 scale, 0 no effect, 100 complete control)
[19] = postemergence, visual injury rating after approximately 10 d, read-out: Ragweed plant response rating (0 to 100 scale, 0 no effect, 100 complete control)
[20] = postemergence, visual injury rating after approximately 10 d, read-out: Ryegrass, Italian plant response rating (0 to 100 scale, 0 no effect, 100 complete control)
[21] = postemergence, visual injury rating after approximately 10 d, read-out: Wheat plant response rating (0 to 100 scale, 0 no effect, 100 complete control)
[22] = Postemergence, visual injury after approximately 10 d, 0 to 100 scale where 0 is no effect and 100 is complete control, read-out: Plant response rating, Galium
[23] = Postemergence, visual injury after approximately 10 d, 0 to 100 scale where 0 is no effect and 100 is complete control, read-out: Plant response rating, Kochia
[24] = Postemergence, visual injury after approximately 10 d, 0 to 100 scale where 0 is no effect and 100 is complete control, read-out: Plant response rating, Barnyardgrass
[25] = Postemergence, visual injury after approximately 10 d, 0 to 100 scale where 0 is no effect and 100 is complete control, read-out: Plant response rating, Blackgrass
[26] = Postemergence, visual injury after approximately 10 d, 0 to 100 scale where 0 is no effect and 100 is complete control, read-out: Plant response rating, Foxtail, Giant
[27] = Postemergence, visual injury after approximately 10 d, 0 to 100 scale where 0 is no effect and 100 is complete control, read-out: Plant response rating, Pigweed
[28] = Postemergence, visual injury after approximately 10 d, 0 to 100 scale where 0 is no effect and 100 is complete control, read-out: Plant response rating, Ragweed
[29] = Postemergence, visual injury after approximately 10 d, 0 to 100 scale where 0 is no effect and 100 is complete control, read-out: Plant response rating, Ryegrass, Italian
[30] = Postemergence, visual injury after approximately 10 d, 0 to 100 scale where 0 is no effect and 100 is complete control, read-out: Plant response rating, Wheat

| Structure (SMILES) | pest or weed control at 125 g/ha [1] | pest or weed control at 500 g/ha [1] | pest or weed control at 125 g/ha [2, 13] | pest or weed control at 125 g/ha (Kochia (Kochia scoparia); [14]) | pest or weed control at 125 g/ha [3, 15] | pest or weed control at 125 g/ha [4, 16] | plant injury at 125 g/ha (corn (Zea mays)) | pest or weed control at 125 g/ha [5, 17] | pest or weed control at 125 g/ha [6, 18] | pest or weed control at 125 g/ha [7, 19] | pest or weed control at 125 g/ha [8, 20] | plant injury at 125 g/ha [9, 21] | pest or weed control at 250 g/ha [10] | pest or weed control at 250 g/ha [11] | pest or weed control at 250 g/ha (rice (Oryra sativa)) | pest or weed control at 250 g/ha [12] | pest or weed control at 125 g/ha [2, 22] | pest or weed control at 125 g/ha (Kochia (Kochia scoparia); [23]) | pest or weed control at 125 g/ha [3, 24] | pest or weed control at 125 g/ha [4, 25] | also measured |
| --- | --- | --- | --- | --- | --- | --- | --- | --- | --- | --- | --- | --- | --- | --- | --- | --- | --- | --- | --- | --- | --- |
| CCOc1ccc([C@H]2CNC(=O)[C@@H]2C(=O)Nc2cccc(F)c2F)cc1 [Compound 907] | 70% | 80% | 0% | 0% | 50% | 0% | 0% | 60% | 0% | 0% | 0% | 0% | 0% | 50% | 0% | 0% |  |  |  |  |  |
| Cc1cc(C)cc([C@H]2CNC(=O)[C@@H]2C(=O)Nc2ccccc2C(F)(F)F)c1 [Compound 909] | 70% | 80% | 0% | 0% | 50% | 0% | 0% | 40% | 0% | 0% | 0% | 0% | 40% | 70% | 0% | 0% |  |  |  |  |  |
| Cc1cc(C)cc([C@H]2CN(C)C(=O)[C@@H]2C(=O)Nc2ccccc2F)c1 [Compound 910] | 90% | 100% | 30% | 20% | 90% | 50% | 70% | 90% | 0% | 10% | 50% | 0% | 70% | 85% | 0% | 0% |  |  |  |  |  |
| Cc1cc(C)cc([C@H]2CN(C)C(=O)[C@@H]2C(=O)Nc2ccccc2C(F)(F)F)c1 [Compound 912] | 80% | 90% | 0% | 0% | 80% | 30% | 30% | 90% | 0% | 0% | 20% | 20% | 50% | 50% | 0% | 0% |  |  |  |  |  |
| CN1CC[C@H](c2ccc(F)cc2)[C@@H](C(=O)Nc2ccccc2F)C1=O [Compound 917] | 20% | 80% |  |  |  |  |  |  |  |  |  |  | 0% | 40% | 0% | 0% | 0% | 0% | 0% | 0% | Corn plant response rating (crop injury, 0 = no effect, 100 = complete kill) at 125 g/ha (corn (Zea mays)): 0%; pest or weed control at 125 g/ha [5, 26]: 0%; pest or weed control at 125 g/ha [6, 27]: 0%; pest or weed control at 125 g/ha [7, 28]: 0%; pest or weed control at 125 g/ha [8, 29]: 0%; plant injury at 125 g/ha [9, 30]: 0% |
| COc1ccc(CN2CC[C@H](c3ccc(F)cc3)[C@@H](C(=O)Nc3cccc(F)c3F)C2=O)cc1 [Compound 919] | 0% | 0% |  |  |  |  |  |  |  |  |  |  | 0% | 0% | 0% | 0% | 0% | 0% | 0% | 0% | Corn plant response rating (crop injury, 0 = no effect, 100 = complete kill) at 125 g/ha (corn (Zea mays)): 0%; pest or weed control at 125 g/ha [5, 26]: 0%; pest or weed control at 125 g/ha [6, 27]: 0%; pest or weed control at 125 g/ha [7, 28]: 0%; pest or weed control at 125 g/ha [8, 29]: 0%; plant injury at 125 g/ha [9, 30]: 0% |
| O=C(Nc1cccc(F)c1F)[C@H]1C(=O)N(C2CC2)CC[C@@H]1c1cccc(C(F)(F)F)c1 [Compound 925] | 30% | 90% |  |  |  |  |  |  |  |  |  |  | 0% | 0% | 0% | 0% | 0% | 0% | 40% | 0% | Corn plant response rating (crop injury, 0 = no effect, 100 = complete kill) at 125 g/ha (corn (Zea mays)): 0%; pest or weed control at 125 g/ha [5, 26]: 40%; pest or weed control at 125 g/ha [6, 27]: 0%; pest or weed control at 125 g/ha [7, 28]: 0%; pest or weed control at 125 g/ha [8, 29]: 0%; plant injury at 125 g/ha [9, 30]: 0% |
